Assays:
[1] = system: human gingival fibroblasts (HGFs); experiment: Tn expression in HGFs, immunofluorescent staining with anti-Tn antibody; type: cell-based; conditions: for Tn levels in HGFs, responsiveness to purified cytokine: 0, 10, 30, 100 ng/ml for 24 hours; for Tn levels in HGFs: TNF-α 30 ng/ml
Experimental: FIG. 6A. Immunohistochemical analysis of Tn antigen in inflammatory tissues (top) and normal tissues (bottom). Tn staining in atherosclerotic aorta (left; labeled Aorta), bronchitis tissue (middle; labeled Bronchi), and periodontitis tissue (right; labeled Gingiva). Brown color represents Tn antigen expression. FIG. 6B. HGFs were treated with conditioned media from U937 cells stimulated with LPS (0, 10, 30 and 100 ng/ml; 24 hours) for 24 hours and then stained with purified rabbit anti-Tn antibody (in red) and DAPI (in blue). FIG. 6C. U937 cells were treated with LPS (0, 10, 30 and 100 ng/ml) for 24 hours, the secretions of TNF-α were analyzed by ELISA. Original magnifications (100×). Scale bar, 50 μm. FIG. 6D. U937 cells were treated with LPS (0, 10, 30 and 100 ng/ml) for 24 hours, the secretions of IL-6 were analyzed by ELISA. Original magnifications (100×). Scale bar, 50 μm. FIG. 6E. U937 cells were treated with LPS (0, 10, 30 and 100 ng/ml) for 24 hours, the secretions of IL-1β were analyzed by ELISA. Original magnifications (100×). Scale bar, 50 μm.
FIGS. 7A and 7B show pro-inflammatory cytokines, TNF-α and IL-6, up-regulates Tn levels in HGFs. FIG. 7A. The effect of pro-inflammatory cytokines on Tn expression in HGFs. HGFs were treated with purified TNF-α, IL-6 and IL-1β at the concentration of 0, 10, 30, and 100 ng/ml for 24 hours and then stained with purified rabbit anti-Tn antibody (in red) and DAPI (in blue). Original magnification (100×); scale bar, 50 μm. FIG. 7B. Time course analysis of Tn expressions in HGFs after TNF-α treatment. HGFs were treated with purified TNF-α at the concentration of 30 ng/ml for 4, 8, 12, 24 and 48 hours and then stained with purified rabbit anti-Tn antibody (in red) and DAPI (in blue) (Magnifications 630×; scale bar, 50 μm). The experiments were repeated at least three times.
(§1) FIG. 9A. Effect of TNF-α and demethylation agents on the methylation level of COSMC gene in HGFs. The comparison of methylation changes is in the HGFs which were treated with or without TNF-α and demethylation agents. The UCSC genome browser illustrated the orientation and the first exon of COSMC (blue bar), GC percent (black scale bar), CpG islands (green bar) and the sequencing region of bisulfite pyrosequencing (COSMC_py02, black bar). […] FIG. 9B. HGFs were co-treated with purified TNF-α and different concentrations of 5-aza-dC (0, 1, 2 and 5 μM) for 24 hours and then immunofluorescent stained with rabbit anti-Tn antibody (in red) and DAPI (in blue). Magnification 630×; Scale bar, 50 μm.

COSMC gene = experiment: Bisulfite pyrosequencing of COSMC gene promoter methylation in HGFs; type: cell-based, human
Experimental: as §1

C57BL/6NCrlBltw mice = experiment: Serum anti-Tn antibody titers by ELISA after immunization; type: in vivo; conditions: mice immunized subcutaneously with adjuvant, versus background before immunization
Experimental: Five-week-old female C57BL/6NCrlBltw mice were subcutaneously immunized with Tn vaccine at a dose of 20 μg or carrier protein (10 μg of mFc(Cys42-Tn)Histag2) in the presence of adjuvant in 100 μl for four times at biweekly intervals and one additional immunization at one week later after the fourth immunization. Blood was withdrawn from facial vein for anti-Tn antibody titer measurement using enzyme-linked immunosorbent assay (ELISA) on days 0, 42, and 49. Four days after the last immunization, mice were exposed to room air (RA) or oxygen-enriched atmosphere (100% O2) for up to 96 hours. Oxygen exposures was carried out in a transparent 60×50×40-cm Plexiglas chamber into which oxygen was continuously delivered at 4 l/min and oxygen levels were monitored with a ProOx Model 110 monitor (NexBiOxy, Hsinchu, Taiwan) and humidity was checked daily and the value was 60-80%. We obtained four study groups as follows: carrier protein+RA (n=6), Tn vaccine+RA (n=6), carrier protein+O2 (n=6), and Tn vaccine+O2 (n=5). Mice were deeply anesthetized with an overdose of isoflurane after 96 hours O2 treatment. […] This washing procedure was repeated two more times for each animal, with the three washes being pooled, and the total volume recorded. […]
GST(Cys6-Tn) was coated on 96-well flat-bottomed plates (Falcon Labware, Lincoln Park, N.J., USA) at a concentration of 1.5 μg/ml. […] Absorbance was read at 410 nm.

NF-κB P65 = experiment: Immunohistochemistry of NF-κB in lung; type: in vivo, mice; conditions: hyperoxia group immunized with carrier protein compared with control and Tn-treated hyperoxia groups
Experimental: After a routine deparaffinization step, heat-induced epitope retrieval was performed by immersing the slides in 0.01 mol/L sodium citrate buffer (pH 6.0). To block the endogenous peroxidase activity and nonspecific antibody binding, sections were first preincubated for 1 hour at room temperature in 0.1 mol/L PBS containing 10% normal goat serum and 0.3% H2O2 before incubating for 20 hours at 4° C. with the rabbit polyclonal anti-NF-κB P65 (1:50 dilution; Abcam Inc., Cambridge, Mass., USA) as primary antibody. The sections were then treated for 1 hour at room temperature with biotinylated goat anti-rabbit IgG (1:200, Vector, Calif., USA). This was followed by reaction with the reagents from an ABC kit (Avidin-Biotin Complex, Vector, Calif., USA) according to the manufacturer's recommendations, and the reaction products were visualized by diaminobenzidine substrate kit (Vector, Calif., USA). All immunostained sections were viewed and photographed by Olympus BX 43.

COSMC = experiment: qPCR of COSMC mRNA in HGFs; type: cell-based, human; conditions: 100 ng/ml, 24 hours
Experimental: (§2) FIG. 8A. Effect of TNF-α and demethylation agents (5-aza-dC) on mRNA expression of COSMC and T-synthase in HGFs. qPCR was used to analyze COSMC and T-synthase mRNA expression in HGFs upon TNF-α and 5-aza-dC treatment. The mRNA expression of COSMC and T-synthase was normalized to GAPDH and statistically analyzed. (*: p<0.05 compared with TNF-α only) Calculations of relative gene expression (normalized to GAPDH reference gene) were performed according to the ΔΔCT method. Fidelity of the PCR reaction was determined by melting temperature analysis. FIG. 8B. Western blotting was used to analyze the protein levels of Cosmc and T-synthase upon 6 and 24 hours of TNF-α treatment. FIG. 8C. and FIG. 8D. HGFs were treated with purified TNF-α for 6 or 24 hours and then immunofluorescent stained with anti-Cosmc (in red) and anti-T-synthase antibodies (in green) and DAPI (in blue). Original magnification (100×); scale bar, 50 μm.

T-synthase = experiment: qPCR of T-synthase mRNA in HGFs; type: cell-based, human; conditions: 100 ng/ml, 24 hours
Experimental: as §2

Molecule: Nc1ncn([C@H]2C[C@H](O)[C@@H](CO)O2)c(=O)n1 [5-aza-dC, reference compound]
- TNF-α-induced Tn expression ([1]; HGFs co-treated with TNF-α and 0, 1, 2, 5 μM for 24 hours): can be suppressed
- TNF-α-induced COSMC gene hypermethylation (COSMC gene; HGFs treated with TNF-α and demethylation agent): can be suppressed

Molecule: Fc fragment-7 repeats of Pro-Cys-Cys-Gly-Cys-Cys-Gly-Cys-Gly-Cys-N-succinimidyl-6-maleimidocaproate [carrier protein]
- serum anti-Tn antibody titers (C57BL/6NCrlBltw mice): low serum Tn antibody titers
- serum anti-Tn antibody titers (C57BL/6NCrlBltw mice; listed as carrier polypeptide): background serum anti-Tn antibody levels
- NFκB immunoreactivity in lung (NF-κB P65): more intense NFκB immunoreactivity

Molecule: interleukin-1β [IL-1β]
- Tn levels in HGFs, responsiveness to purified cytokine [1]: not responsive

Molecule: interleukine-6 [IL-6]
- Tn levels in HGFs, responsiveness to purified cytokine [1]: moderately responsive

Molecule: tumor necrosis factor-α [TNF-α]
- Tn levels in HGFs, responsiveness to purified cytokine [1]: most responsive
- Tn levels in HGFs ([1]; 8 to 12 hrs): Gradual increase
- Tn levels in HGFs ([1]; 4 hrs): essentially unchanged
- Tn levels in HGFs ([1]; after 24 hours): gradually decreased
- Tn levels in HGFs ([1]; after 48 hours): markedly decreased
- COSMC mRNA in HGFs (COSMC): significantly down-regulated
- T-synthase mRNA level in HGFs (T-synthase): did not significantly alter
- methylation of four CpG sites in the promoter of the COSMC gene (COSMC gene; TNF-α treatment of HGFs): significantly hypermethylated

— US10485868B2, “Tn vaccine composition and method for alleviating inflammation” (TAIPEI MEDICAL UNIVERSITY, priority 2017, dated 2019)
